Test results: patent publication US5055302A, “Neuropeptide control of ocular growth” (Trustees of the University of Pennsylvania, priority 1990, dated 1991)
Entries after “also recorded” stand apart in the source; their conditions may differ.

Experiments:
[1] = system: lid-sutured eyes; assay: Form deprivation myopia induced by eyelid suture in chicks; VIP given daily by subconjunctival injection to the sutured eye, ocular dimensions measured with calipers; format: in vivo, White Leghorn chicks; conditions: for Axial length (deprived minus control eye), mean ± S.E.M. / Equatorial diameter (deprived minus control eye), mean ± S.E.M.: subconjunctival
Protocol: (§1) Form deprivation myopia in day-old White Leghorn chicks was induced by eyelid suture under aseptic conditions and ether anesthesia. One eyelid of the chicks was sutured. […] Translucent vision is permitted through the eyelid. The contralateral unsutured open eye served as the control eye. VIP was administered daily to the deprived, or sutured, eye. Saline was administered to the unsutured eye. All agents were given under ether anesthesia by subconjunctival injection. The chicks were maintained on a 12 hour light/dark cycle. The birds were killed at ages up to 4 weeks by decapitation under deep pentobarbital anesthesia. Axial and equatorial dimensions of unfixed eyes were measured with vernier calipers.
(§2) VIP (porcine VIP, Peninsula Laboratories, Inc. Belmont Calif.) was administered in three (descending) dose levels to lid-sutured eyes of 23 chicks and to one eye of an additional 15 chicks which had both eyes open.

[2] = system: open eyes; assay: Effect of VIP on growth of open eyes (control chicks with both eyes open, one eye treated); format: in vivo, White Leghorn chicks; conditions: for Axial length (treated eye minus untreated eye), mean ± S.E.M. / Equatorial diameter (treated eye minus untreated eye), mean ± S.E.M.: open eyes, subconjunctival
Protocol: as §1, §2

SMILES: CC[C@H](C)[C@H](NC(=O)[C@H](CO)NC(=O)[C@H](CC(N)=O)NC(=O)[C@H](CC(C)C)NC(=O)[C@H](Cc1ccc(O)cc1)NC(=O)[C@H](CCCCN)NC(=O)[C@H](CCCCN)NC(=O)[C@@H](NC(=O)[C@H](C)NC(=O)[C@H](CCSC)NC(=O)[C@H](CCC(N)=O)NC(=O)[C@H](CCCCN)NC(=O)[C@H](CCCNC(=N)N)NC(=O)[C@H](CC(C)C)NC(=O)[C@H](CCCNC(=N)N)NC(=O)[C@@H](NC(=O)[C@H](Cc1ccc(O)cc1)NC(=O)[C@H](CC(N)=O)NC(=O)[C@H](CC(=O)O)NC(=O)[C@@H](NC(=O)[C@H](Cc1ccccc1)NC(=O)[C@@H](NC(=O)[C@H](C)NC(=O)[C@H](CC(=O)O)NC(=O)[C@H](CO)NC(=O)[C@@H](N)Cc1c[nH]cn1)C(C)C)[C@@H](C)O)[C@@H](C)O)C(C)C)C(=O)N[C@@H](CC(C)C)C(=O)N[C@@H](CC(N)=O)C(N)=O [VIP, vasoactive intestinal peptide]
- Block of axial elongation ([1]; 0.25 μg dose): ~80%
- Treatment effect on axial length, one way analysis of variance ([1]; (p<0.05)): significant treatment effects
- Treatment effect on equatorial diameters ([1]; VIP treatment, all doses): no significant treatment effects
- Axial length (deprived minus control eye), mean ± S.E.M. ([1]; daily dose 0.025 μg): 0.17 ± 0.10 mm
- Equatorial diameter (deprived minus control eye), mean ± S.E.M. ([1]; daily dose 0.025 μg): 0.91 ± 0.05 mm
- Axial length (deprived minus control eye), mean ± S.E.M. ([1]; daily dose 0.25 μg): 0.07 ± 0.07 mm
- Equatorial diameter (deprived minus control eye), mean ± S.E.M. ([1]; daily dose 0.25 μg): 0.92 ± 0.04 mm
- Effective range of the peptide ([1]; daily dose 2.5 μg): outside the effective range
- Axial length (deprived minus control eye), mean ± S.E.M. ([1]; daily dose 2.5 μg): 0.34 ± 0.15 mm
- Equatorial diameter (deprived minus control eye), mean ± S.E.M. ([1]; daily dose 2.5 μg): 0.90 ± 0.10 mm
- Treatment effect on axial length, one way analysis of variance ([1]; dose 0.25 μg (p<0.001)): profound treatment effect; also recorded: significant treatment effects
- Treatment effect on axial or equatorial diameters ([2]; controls (both eyes open), all three levels of VIP): no significant treatment effect
- Axial length (treated eye minus untreated eye), mean ± S.E.M. ([2]; daily dose 0.025 μg): 0.008 ± 0.10 mm
- Equatorial diameter (treated eye minus untreated eye), mean ± S.E.M. ([2]; daily dose 0.025 μg): 0.07 ± 0.04 mm
- Axial length (treated eye minus untreated eye), mean ± S.E.M. ([2]; daily dose 0.25 μg): 0.03 ± 0.05 mm
- Equatorial diameter (treated eye minus untreated eye), mean ± S.E.M. ([2]; daily dose 0.25 μg): 0.02 ± 0.02 mm
- Axial length (treated eye minus untreated eye), mean ± S.E.M. ([2]; daily dose 2.5 μg): 0.13 ± 0.06 mm
- Equatorial diameter (treated eye minus untreated eye), mean ± S.E.M. ([2]; daily dose 2.5 μg): -0.01 ± 0.06 mm
